The record followed here is PubChem BioAssay (NCI).

Test systems include A498 renal; BT-549 breast; CAKI-1 renal; HCT-116 colon; HOP-62 NSCLC; HT29 colon; MALME-3M melanoma; NCI-H23 lung; NCI-H460 lung; NCI-H522 lung; OVCAR-3 ovarian; SF-295 CNS; SK-MEL-28 melanoma; SNB-19 CNS; SNB-75 CNS; T-47D breast; U251 CNS.
Common to all, as to experiment: NCI tumour cell line growth inhibition, 48 h

Structures are written as SMILES.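 Exposure lasted 48 hours, with cells grown in 96-well plates and compounds tested at five concentrations. At the TGI there is no net growth.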

For `CCOc1cccc(C=Nc2ccccc2SSc2ccccc2N=Cc2cccc(OCC)c2O)c1O`, the TGI in the experiment with A498 renal worked out at 44 µM; with BT-549 breast it was 8.19 µM; with CAKI-1 renal, 29.3 µM; in the experiment with HCT-116 colon, 11.2 µM; with HOP-62 NSCLC, 30.9 µM; in the experiment on HT29 colon, 28.9 µM. Further, the TGI with MALME-3M melanoma amounted to 23.6 µM; with NCI-H23 lung, 20.3 µM; in the experiment on NCI-H460 lung, 20.1 µM; with NCI-H522 lung it was 10.4 µM; with OVCAR-3 ovarian it was 8.16 µM; with SF-295 CNS, 37.6 µM. In addition, the TGI in the experiment on SK-MEL-28 melanoma was determined as 26.2 µM; in the experiment on SNB-19 CNS, 47.4 µM; with SNB-75 CNS it was 56 µM; in the experiment on T-47D breast, 10.7 µM; in the experiment on U251 CNS it was 13.2 µM.

On to `CN(CCC(=O)N1CC(CCl)c2ccc([N+](=O)[O-])cc21)CCC(=O)N1CC(CCl)c2ccc([N+](=O)[O-])cc21` (centres undefined), for which the TGI with A498 renal is 35.3 µM; in the experiment on BT-549 breast it was above 100 µM; with CAKI-1 renal, 48 µM; with HCT-116 colon, 26.1 µM; in the experiment with HOP-62 NSCLC it was above 100 µM; with HT29 colon, 24 µM. Further, the TGI with MALME-3M melanoma is 23.7 µM; in the experiment on NCI-H23 lung, 29.3 µM; in the experiment on NCI-H460 lung, above 100 µM; with NCI-H522 lung, 21.7 µM; in the experiment on OVCAR-3 ovarian, 23.7 µM; with SF-295 CNS, 39.5 µM. The TGI in the experiment with SK-MEL-28 melanoma was 28.9 µM; with SNB-19 CNS, above 100 µM; in the experiment on SNB-75 CNS, 19 µM; in the experiment on T-47D breast, above 100 µM; in the experiment with U251 CNS it was above 100 µM.

On to `COc1cc2c(cc1C)NC(=O)/C2=C/c1cccnc1`, for which the TGI in the experiment on A498 renal is 24.6 µM; with BT-549 breast, above 82 µM; in the experiment with CAKI-1 renal it was 30.3 µM; with HCT-116 colon it was 31.2 µM; in the experiment with HOP-62 NSCLC it was 30.5 µM; in the experiment with HT29 colon it was above 100 µM. The TGI is above 52.9 µM in the experiment on MALME-3M melanoma; 24.8 µM in the experiment with NCI-H23 lung; 35.4 µM with NCI-H460 lung; 33.4 µM in the experiment with NCI-H522 lung; 33.3 µM in the experiment on OVCAR-3 ovarian; 40.5 µM in the experiment with SF-295 CNS. Besides, the TGI is above 100 µM in the experiment on SK-MEL-28 melanoma; 32.1 µM with SNB-19 CNS; above 100 µM in the experiment with SNB-75 CNS; 8.13 µM in the experiment on T-47D breast; above 52.5 µM in the experiment with U251 CNS.

Consider `Nc1cc(Cl)cc2cc(Cl)cnc12`, for which the TGI in the experiment with A498 renal, in the experiment with BT-549 breast, in the experiment with CAKI-1 renal, with HCT-116 colon, in the experiment with HOP-62 NSCLC and in the experiment on HT29 colon was above 100 µM in each case. Also, the TGI with MALME-3M melanoma, with NCI-H23 lung, in the experiment with NCI-H460 lung, in the experiment on NCI-H522 lung, in the experiment on OVCAR-3 ovarian and in the experiment on SF-295 CNS was above 100 µM throughout. Also, the TGI with SK-MEL-28 melanoma, with SNB-19 CNS, with SNB-75 CNS, in the experiment with T-47D breast and in the experiment on U251 CNS was above 100 µM in each case.

Take `CC(=O)C(C(=O)c1ccc(C)cc1)[C@@H]1OC(C)(C)O[C@@H]1[C@H]1COC(C)(C)O1` (some centres undefined): the TGI is above 75.7 µM in the experiment with A498 renal; above 32.4 µM in the experiment with BT-549 breast; 53.6 µM with CAKI-1 renal; 15.4 µM with HCT-116 colon; above 58.4 µM in the experiment on HOP-62 NSCLC; 20 µM in the experiment with HT29 colon. Moreover, the TGI with MALME-3M melanoma was 34 µM; in the experiment on NCI-H23 lung, 32.6 µM; with NCI-H460 lung, above 88.9 µM; with NCI-H522 lung, 11.3 µM; in the experiment with OVCAR-3 ovarian it was 24.4 µM; in the experiment with SF-295 CNS, above 100 µM. Further, the TGI in the experiment on SK-MEL-28 melanoma was above 77.7 µM; in the experiment with SNB-19 CNS, above 48.3 µM; in the experiment with SNB-75 CNS, above 59.2 µM; with T-47D breast it was above 49.8 µM; with U251 CNS, 18.5 µM.

As to `CC(C)C[C@H]1[C@@H](OCc2ccccc2)COS(=O)(=O)N1[C@H](C)c1ccccc1`, the TGI in the experiment on A498 renal, in the experiment on BT-549 breast, with CAKI-1 renal, in the experiment on HCT-116 colon, with HOP-62 NSCLC and in the experiment with HT29 colon was above 100 µM throughout. Besides, the TGI in the experiment with MALME-3M melanoma, in the experiment with NCI-H23 lung, in the experiment on NCI-H460 lung, with NCI-H522 lung, in the experiment on OVCAR-3 ovarian and in the experiment on SF-295 CNS was above 100 µM throughout. Also, the TGI with SK-MEL-28 melanoma is above 100 µM; in the experiment with SNB-19 CNS, above 100 µM; in the experiment with SNB-75 CNS, above 100 µM; in the experiment with T-47D breast, 39.7 µM; in the experiment on U251 CNS it was above 67.7 µM.

As to `O=S(=O)(O)CCSSCCS(=O)(=O)O`, the TGI in the experiment with A498 renal, in the experiment on BT-549 breast, in the experiment on CAKI-1 renal, in the experiment with HCT-116 colon, in the experiment with HOP-62 NSCLC and in the experiment on HT29 colon was above 1000 µM throughout. The TGI in the experiment on MALME-3M melanoma, with NCI-H23 lung, with NCI-H460 lung, in the experiment on NCI-H522 lung, with OVCAR-3 ovarian and in the experiment on SF-295 CNS was above 1000 µM each time. In addition, the TGI with SK-MEL-28 melanoma, in the experiment on SNB-19 CNS, with SNB-75 CNS, in the experiment on T-47D breast and in the experiment with U251 CNS was above 1000 µM throughout.

`Cc1ccc2c(c1)C(=O)C1(C2)Cc2c(C)cccc2C1=O` (centres undefined): the TGI in the experiment on A498 renal, in the experiment with BT-549 breast, with CAKI-1 renal, in the experiment on HCT-116 colon, in the experiment with HOP-62 NSCLC and in the experiment with HT29 colon was above 100 µM in each case. Besides, the TGI in the experiment with MALME-3M melanoma, in the experiment on NCI-H23 lung, in the experiment with NCI-H460 lung, in the experiment with NCI-H522 lung, in the experiment with OVCAR-3 ovarian and with SF-295 CNS was above 100 µM each time. Further, the TGI in the experiment with SK-MEL-28 melanoma, in the experiment on SNB-19 CNS, with SNB-75 CNS, with T-47D breast and in the experiment on U251 CNS was above 100 µM each time.

Consider `O=C(Nc1ccc(Cl)cc1)c1cc(S(=O)(=O)Nc2n[nH]c(Nc3ccc4ccccc4c3)n2)c(SSc2cc(Cl)c(C(=O)Nc3ccc(Cl)cc3)cc2S(=O)(=O)Nc2n[nH]c(Nc3ccc4ccccc4c3)n2)cc1Cl`, for which the TGI with A498 renal stood at 52.1 µM; in the experiment on BT-549 breast, 61.1 µM; in the experiment with CAKI-1 renal, 38 µM; in the experiment with HCT-116 colon it was 39.5 µM; with HOP-62 NSCLC, 80.6 µM; with HT29 colon, 38.2 µM. Also, the TGI is 43 µM in the experiment on MALME-3M melanoma; 66.5 µM with NCI-H23 lung; 73.7 µM with NCI-H460 lung; 50.8 µM with NCI-H522 lung; 59.5 µM with OVCAR-3 ovarian; 58.3 µM in the experiment with SF-295 CNS. The TGI in the experiment on SK-MEL-28 melanoma was determined as 46.9 µM; in the experiment on SNB-19 CNS, 50.4 µM; in the experiment on SNB-75 CNS, 76.6 µM; in the experiment with T-47D breast, 43.6 µM; in the experiment with U251 CNS, 58.6 µM.

Regarding `CN1CCCC2C(c3ccccc3)C(C3=NCCCC3)C(c3ccccc3)CC21` (centres undefined), the TGI in the experiment with A498 renal is above 100 µM; in the experiment with BT-549 breast it was above 100 µM; with CAKI-1 renal, above 100 µM; with HCT-116 colon, above 100 µM; in the experiment with HOP-62 NSCLC, above 100 µM; with HT29 colon, 67.6 µM. Besides, the TGI is 37.6 µM in the experiment on MALME-3M melanoma; above 100 µM in the experiment on NCI-H23 lung; above 100 µM in the experiment with NCI-H460 lung; 54.5 µM with NCI-H522 lung; above 100 µM with OVCAR-3 ovarian; above 100 µM with SF-295 CNS. Further, the TGI in the experiment with SK-MEL-28 melanoma was 36.2 µM; in the experiment with SNB-19 CNS, above 100 µM; with SNB-75 CNS, 38 µM; in the experiment with T-47D breast it was above 100 µM; in the experiment on U251 CNS, above 100 µM.

Turning to `CC1=NN(c2cccc(S(=O)(=O)O)c2)C2(C1)C(Cl)C(=O)N2c1nc2ccccc2s1` (centres undefined), the TGI was 34 µM in the experiment on A498 renal; 18.7 µM with BT-549 breast; 8.48 µM in the experiment with CAKI-1 renal; 20.4 µM in the experiment on HCT-116 colon; 17.9 µM with HOP-62 NSCLC; 22.2 µM with HT29 colon. In addition, the TGI with MALME-3M melanoma turned out to be 17.3 µM; in the experiment with NCI-H23 lung, 13.5 µM; in the experiment with NCI-H460 lung, 26.3 µM; in the experiment with NCI-H522 lung, 3.99 µM; with OVCAR-3 ovarian, 9.26 µM; in the experiment on SF-295 CNS it was 28 µM. Moreover, the TGI came to 36.1 µM in the experiment on SK-MEL-28 melanoma; 27 µM with SNB-19 CNS; 13.1 µM in the experiment on SNB-75 CNS; 40.4 µM in the experiment on T-47D breast; 16.3 µM in the experiment with U251 CNS.

`CC1=NN(c2ccccc2)C2(C1)C(Cl)C(=O)N2c1nc2ccccc2s1` (centres undefined): the TGI was above 100 µM with A498 renal; above 100 µM in the experiment with BT-549 breast; above 100 µM in the experiment on CAKI-1 renal; 51.5 µM in the experiment on HCT-116 colon; 82.6 µM in the experiment on HOP-62 NSCLC; above 100 µM with HT29 colon. Moreover, the TGI was above 100 µM with MALME-3M melanoma; 77.6 µM with NCI-H23 lung; above 100 µM in the experiment on NCI-H460 lung; 58.9 µM in the experiment with NCI-H522 lung; 47.9 µM with OVCAR-3 ovarian; above 100 µM with SF-295 CNS. The TGI with SK-MEL-28 melanoma, in the experiment with SNB-19 CNS, in the experiment with SNB-75 CNS, in the experiment with T-47D breast and in the experiment on U251 CNS was above 100 µM each time.
